ChEMBL document CHEMBL4732098, “Alkylated monoterpene indole alkaloid derivatives as potent P-glycoprotein inhibitors in resistant cancer cells” (Eur J Med Chem, 2021)

What was measured:
L5178Y [1] = assay: Cytotoxicity against mouse L5178Y cells transfected with human ABCB1 assessed as reduction in cell viability incubated for 24 hrs by MTT assay; assay type: cell-based
L5178Y [2] = assay: Cytotoxicity against mouse L5178Y cells assessed as reduction in cell viability incubated for 24 hrs by MTT assay; assay type: cell-based
COLO 320 [3] = assay: Cytotoxicity against human COLO 320 cells assessed as reduction in cell viability incubated for 24 hrs by MTT assay; assay type: cell-based; conditions: COLO 320, 24 h
COLO 205 = assay: Cytotoxicity against human COLO 205 cells assessed as reduction in cell viability incubated for 24 hrs by MTT assay; assay type: cell-based; conditions: COLO 205, 24 h
L5178Y [4] = assay: Synergistic cytotoxicity against mouse L5178Y cells transfected with human ABCB1 assessed as combination index measured after 72 hrs in presence doxorubicin by MTT assay based Chou-Talalay method; assay type: functional
COLO 320 [5] = assay: Synergistic cytotoxicity against human resistant COLO 320 cells assessed as combination index measured after 72 hrs in presence doxorubicin by MTT assay based Chou-Talalay method; assay type: functional; conditions: dose 2 µM

Structure (SMILES) | IC50 (L5178Y [1]) [µM] | IC50 (L5178Y [2]) [µM] | IC50 (COLO 320 [3]) [µM] | IC50 (COLO 205) [µM] | CI (L5178Y [4]) | CI (COLO 320 [5])
CC[C@@H]1CN(C)[C@H]2Cc3c([nH]c4ccccc34)C(=O)C[C@H]1C2C(=O)OC (some centres undefined) | 78.8 | 55.9 | > 100 | > 100 |  | 
CC[C@H]1CN(C)[C@H]2Cc3c([nH]c4ccccc34)C(=O)C[C@H]1C2C(=O)OC (some centres undefined) | 91.8 | 62.5 | 71.6 | 40.4 |  | 
CC[C@@H]1CN(C)[C@H]2Cc3c(n(CCc4cccc(Br)c4)c4ccccc34)C(=O)C[C@H]1C2C(=O)OC (some centres undefined) | 85.6 | 39.6 | 94.8 | > 100 | <1 | 
C=CCn1c2c(c3ccccc31)C[C@H]1C(C(=O)OC)[C@H](CC2=O)[C@H](CC)CN1C (some centres undefined) | 96.6 | 64.2 | > 100 | > 100 |  | 
CC[C@@H]1CN(C)[C@H]2Cc3c(n(CCc4ccc(Br)cc4)c4ccccc34)C(=O)C[C@H]1C2C(=O)OC (some centres undefined) | 59.3 | 71 | > 100 | > 100 | <1 | 
CC[C@@H]1CN(C)[C@H]2Cc3c(n(Cc4cccc(OC)c4)c4ccccc34)C(=O)C[C@H]1C2C(=O)OC (some centres undefined) | 36.7 | 42.1 | 84.4 | 88.4 | <1 | 
CC[C@@H]1CN(C)[C@H]2Cc3c(n(Cc4cccc(Cl)c4)c4ccccc34)C(=O)C[C@H]1C2C(=O)OC (some centres undefined) | 38.1 | 38.4 | 74.7 | > 100 | <1 | 
CC[C@@H]1CN(C)[C@H]2Cc3c(n(Cc4ccc(C(=O)c5ccccc5)cc4)c4ccccc34)C(=O)C[C@H]1C2C(=O)OC (some centres undefined) | > 100 | 89.3 | > 100 | > 100 |  | 
CC[C@@H]1CN(C)[C@H]2Cc3c(n(Cc4ccc(C)cc4)c4ccccc34)C(=O)C[C@H]1C2C(=O)OC (some centres undefined) | 37.1 | 31.8 | 53 | 11.8 | <1 | <1
CC[C@@H]1CN(C)[C@H]2Cc3c(n(Cc4ccc(OC)cc4)c4ccccc34)C(=O)C[C@H]1C2C(=O)OC (some centres undefined) | 80.1 | 86 | 76.8 | 90.6 |  | 
CC[C@@H]1CN(C)[C@H]2Cc3c(n(Cc4ccccc4C)c4ccccc34)C(=O)C[C@H]1C2C(=O)OC (some centres undefined) | 61 | 42.2 | 97.5 | > 100 | <1 | 
CC[C@@H]1CN(C)[C@H]2Cc3c(n(Cc4ccc([N+](=O)[O-])cc4)c4ccccc34)C(=O)C[C@H]1C2C(=O)OC (some centres undefined) | 81 | 63.3 | 86.2 | > 100 |  | 
CC[C@@H]1CN(C)[C@H]2Cc3c(n(Cc4cccc([N+](=O)[O-])c4)c4ccccc34)C(=O)C[C@H]1C2C(=O)OC (some centres undefined) | 58.9 | 63.1 | > 100 | > 100 | <1 | 
CC[C@@H]1CN(C)[C@H]2Cc3c(n(Cc4ccccn4)c4ccccc34)C(=O)C[C@H]1C2C(=O)OC (some centres undefined) | > 100 | 97.6 | > 100 | > 100 |  | 
CCCn1c2c(c3ccccc31)C[C@H]1C(C(=O)OC)[C@H](CC2=O)[C@H](CC)CN1C (some centres undefined) | 48.5 | 35.1 | > 100 | > 100 | <1 | 
CC[C@@H]1CN(C)[C@H]2Cc3c(n(CCc4ccc(OC)cc4)c4ccccc34)C(=O)C[C@H]1C2C(=O)OC (some centres undefined) | 37.2 | 25.5 | 49 | 80 | <1 | <1
CC[C@H]1CN(C)[C@H]2Cc3c(n(CC)c4ccccc34)C(=O)C[C@H]1C2C(=O)OC (some centres undefined) | 48.4 | 66.3 | > 100 | > 100 | <1 | 
CC[C@H]1CN(C)[C@H]2Cc3c(n(Cc4ccc(Br)cc4)c4ccccc34)C(=O)C[C@H]1C2C(=O)OC (some centres undefined) | 38.5 | 34.7 | 24.8 | 28.4 | <1 | 
CC[C@H]1CN(C)[C@H]2Cc3c(n(Cc4ccc(OC)cc4)c4ccccc34)C(=O)C[C@H]1C2C(=O)OC (some centres undefined) | 35.6 | 50.7 | 60.3 | 58.9 | <1 | <1
CC[C@@H]1CN(C)[C@H]2Cc3c(n(Cc4ccc(Cl)cc4)c4ccccc34)C(=O)C[C@H]1C2C(=O)OC (some centres undefined) | 43.2 | 48.3 | 61.3 | 55.5 | <1 | 
CC[C@H]1CN(C)[C@H]2Cc3c(n(Cc4ccc(Cl)cc4)c4ccccc34)C(=O)C[C@H]1C2C(=O)OC (some centres undefined) | 24.1 | 32.4 | 23.4 | 15.9 | <1 | 
CC[C@@H]1CN(C)[C@H]2Cc3c(n(CCc4cccc(OC)c4)c4ccccc34)C(=O)C[C@H]1C2C(=O)OC (some centres undefined) | 78.4 | 40.6 | > 100 | > 100 | <1 | 
CC[C@@H]1CN(C)[C@H]2Cc3c(n(CC)c4ccccc34)C(=O)C[C@H]1C2C(=O)OC (some centres undefined) | 74.4 | 69.4 | > 100 | > 100 |  | 
CC[C@@H]1CN(C)[C@H]2Cc3c(n(Cc4cccc(C)c4)c4ccccc34)C(=O)C[C@H]1C2C(=O)OC (some centres undefined) | 52.8 | 41.9 | 82.2 | 93.6 | <1 | 
CC[C@@H]1CN(C)[C@H]2Cc3c(n(Cc4cc(OC)cc(OC)c4)c4ccccc34)C(=O)C[C@H]1C2C(=O)OC (some centres undefined) | 39.1 | 27.8 | > 100 | > 100 | <1 | 
CC[C@@H]1CN(C)[C@H]2Cc3c(n(Cc4ccc(Br)cc4)c4ccccc34)C(=O)C[C@H]1C2C(=O)OC (some centres undefined) | 45 | 36.4 | 45.7 | 39.7 | <1 | 
CCCn1c2c(c3ccccc31)C[C@H]1C(C(=O)OC)[C@H](CC2=O)[C@@H](CC)CN1C (some centres undefined) | 34.7 | 45.1 | 40.5 | 25.2 | <1 | 
CC[C@@H]1CN(C)[C@H]2Cc3c(n(CCCO)c4ccccc34)C(=O)C[C@H]1C2C(=O)OC (some centres undefined) | > 100 | > 100 | > 100 | > 100 |  | 
